How the values were obtained:
HRAS^G12V-GppNHp = target: T1, HRAS^G12V-GppNHp (Homo sapiens, UniProt P01112, G12V); assay: SPR binding to HRAS G12V-GppNHp
T1 construct: expression of HRAS (1-166) HRAS^G12V or KRAS^G12V cDNA cloned into the pGEX-2T vector; made in house; host or cells: E. coli C41(DE3)
Description: A BIAcore T100 (GE Healthcare) was used to screen the fragment library for RAS binders. A polyclonal goat anti-GST antibody (GE Healthcare) was immobilized on a CM5 sensor chip (GE Healthcare) by the amine coupling method. To immobilize the antibody on CM5 chip, the chip was first activated by injecting 100 µl mixture of 0.2 M EDC (N-ethyl-N-(dimethylaminopropyl) carbodiimide hydrochloride) and 0.05 M NHS (N-hydroxysuccinimide) at 10 µl/min flow rate. Furthermore, 100 µg/ml anti-GST antibody in 10 mM sodium acetate, pH 5.0 was injected at 5 µl/min for 900 s and immobilized until 20,000 ~ 25,000 RU. After immobilization the chip was immediately inactivated by injecting 1 M ethanolamine, pH 8.5 at 10 µl/min for 600 s. The chip was kept running in the HBS buffer (GE Healthcare) comprising 10 mM HEPES, […], 150 mM NaCl. […] Before fragment library screening, the running buffer was replaced by 20 mM Tris, pH 8, 150 mM NaCl, 5 mM MgCl2, 5% DMSO. DMSO solvent correction curves were generated by injecting the running buffers with serial concentrations of DMSO ranging from 4.5 to 6%. For fragment screening, each compound was diluted at 200 µM or 1 mM, 5% DMSO in 20 mM Tris, pH 8, 150 mM NaCl, 5 mM MgCl2 buffer in a polypropylene 96 well plate. The individual compounds were injected at 30 µl for 60 s at 30 µl/min flow rate over flow cells Fc1, Fc2, Fc3 and Fc4. […]

BRAF = target: T2, BRAF (Homo sapiens, UniProt P15056); assay: Kinase panel (KinaseProfiler); format: biochemical; conditions: 10μM
T2 construct: purchased Eurofins Pharma Discovery Services (KinaseProfiler)
Description: (§1) Experiments were performed by Eurofins Pharma Discovery Services. The KinaseProfiler™ assay protocol guide can be downloaded from their website: www.eurofins.com/discoveryservices. The guide contains information on the buffer conditions, substrate and reference inhibitor blank used for each kinase.
(§2) Supplementary Table 3. Assessment of potential interaction of Abd-7 with a human kinase
(§3) Kinase % kinase activity in
(§4) A panel of 14 Kinases (relevant to the RAS pathway) has been screened against Abd-7
(§5) (10μM) and the kinase activity was measured. […] of activity was observe for all
(§6) function of the selected and RAS relevant kinase proteins.

CRAF = target: T3, CRAF (Homo sapiens, UniProt P04049); assay: Kinase panel (KinaseProfiler); format: biochemical; conditions: 10μM
T3 construct: purchased Eurofins Pharma Discovery Services (KinaseProfiler)
Description: as §1, §2, §3, §4, §5, §6

EGFR = target: T4, EGFR (Homo sapiens, UniProt P00533); assay: Kinase panel (KinaseProfiler); format: biochemical; conditions: 10μM
T4 construct: purchased Eurofins Pharma Discovery Services (KinaseProfiler)
Description: as §1, §2, §3, §4, §5, §6

MAPK1 = target: T5, MAPK1 (Homo sapiens, UniProt P27361); assay: Kinase panel (KinaseProfiler); format: biochemical; conditions: MAPK1, 10μM
T5 construct: purchased Eurofins Pharma Discovery Services (KinaseProfiler)
Description: as §1, §2, §3, §4, §5, §6

MAPK2 = target: T6, MAPK2 (Homo sapiens, UniProt P28482); assay: Kinase panel (KinaseProfiler); format: biochemical; conditions: MAPK2, 10μM
T6 construct: purchased Eurofins Pharma Discovery Services (KinaseProfiler)
Description: as §1, §2, §3, §4, §5, §6

MEK1 = target: T7, MEK1 (Homo sapiens, UniProt Q02750); assay: Kinase panel (KinaseProfiler); format: biochemical; conditions: MEK1, 10μM
T7 construct: purchased Eurofins Pharma Discovery Services (KinaseProfiler)
Description: as §1, §2, §3, §4, §5, §6

MEK2 = target: T8, MEK2 (Homo sapiens, UniProt P36507); assay: Kinase panel (KinaseProfiler); format: biochemical; conditions: MEK2, 10μM
T8 construct: purchased Eurofins Pharma Discovery Services (KinaseProfiler)
Description: as §1, §2, §3, §4, §5, §6

PDK1 = target: T9, PDK1 (Homo sapiens, UniProt O15530); assay: Kinase panel (KinaseProfiler); format: biochemical; conditions: PDK1, 10μM
T9 construct: purchased Eurofins Pharma Discovery Services (KinaseProfiler)
Description: as §1, §2, §3, §4, §5, §6

PKBα = target: T10, PKBα (Homo sapiens, UniProt P31749); assay: Kinase panel (KinaseProfiler); format: biochemical; conditions: 10μM
T10 construct: purchased Eurofins Pharma Discovery Services (KinaseProfiler)
Description: as §1, §2, §3, §4, §5, §6

PKBβ = target: T11, PKBβ (Homo sapiens, UniProt P31751); assay: Kinase panel (KinaseProfiler); format: biochemical; conditions: 10μM
T11 construct: purchased Eurofins Pharma Discovery Services (KinaseProfiler)
Description: as §1, §2, §3, §4, §5, §6

PKBγ = target: T12, PKBγ (Homo sapiens, UniProt Q9Y243); assay: Kinase panel (KinaseProfiler); format: biochemical; conditions: 10μM
T12 construct: purchased Eurofins Pharma Discovery Services (KinaseProfiler)
Description: as §1, §2, §3, §4, §5, §6

mTOR = target: T13, mTOR (Homo sapiens, UniProt P42345); assay: Kinase panel (KinaseProfiler); format: biochemical; conditions: 10μM
T13 construct: purchased Eurofins Pharma Discovery Services (KinaseProfiler)
Description: as §1, §2, §3, §4, §5, §6

T6 sequence (P28482 whole entry): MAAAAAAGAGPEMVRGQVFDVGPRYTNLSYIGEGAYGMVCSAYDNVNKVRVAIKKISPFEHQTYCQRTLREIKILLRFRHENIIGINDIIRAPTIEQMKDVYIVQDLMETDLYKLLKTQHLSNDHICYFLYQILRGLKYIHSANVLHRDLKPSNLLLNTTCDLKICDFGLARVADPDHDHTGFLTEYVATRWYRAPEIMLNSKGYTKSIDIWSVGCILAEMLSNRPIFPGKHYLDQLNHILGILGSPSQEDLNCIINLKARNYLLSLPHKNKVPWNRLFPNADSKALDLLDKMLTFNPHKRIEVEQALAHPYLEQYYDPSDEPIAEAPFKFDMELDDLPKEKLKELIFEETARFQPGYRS
T5 sequence (P27361 whole entry): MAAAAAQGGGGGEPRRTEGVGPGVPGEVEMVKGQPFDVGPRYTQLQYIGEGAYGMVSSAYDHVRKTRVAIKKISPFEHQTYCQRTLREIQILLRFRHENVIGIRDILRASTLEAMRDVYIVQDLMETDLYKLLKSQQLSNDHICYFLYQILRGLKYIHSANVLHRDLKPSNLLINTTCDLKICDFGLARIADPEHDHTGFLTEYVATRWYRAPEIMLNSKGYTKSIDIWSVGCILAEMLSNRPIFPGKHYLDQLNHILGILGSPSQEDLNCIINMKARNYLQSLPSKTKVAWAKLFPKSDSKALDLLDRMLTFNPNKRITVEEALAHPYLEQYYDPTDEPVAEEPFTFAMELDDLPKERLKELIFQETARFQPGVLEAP
T9 sequence (O15530 whole entry): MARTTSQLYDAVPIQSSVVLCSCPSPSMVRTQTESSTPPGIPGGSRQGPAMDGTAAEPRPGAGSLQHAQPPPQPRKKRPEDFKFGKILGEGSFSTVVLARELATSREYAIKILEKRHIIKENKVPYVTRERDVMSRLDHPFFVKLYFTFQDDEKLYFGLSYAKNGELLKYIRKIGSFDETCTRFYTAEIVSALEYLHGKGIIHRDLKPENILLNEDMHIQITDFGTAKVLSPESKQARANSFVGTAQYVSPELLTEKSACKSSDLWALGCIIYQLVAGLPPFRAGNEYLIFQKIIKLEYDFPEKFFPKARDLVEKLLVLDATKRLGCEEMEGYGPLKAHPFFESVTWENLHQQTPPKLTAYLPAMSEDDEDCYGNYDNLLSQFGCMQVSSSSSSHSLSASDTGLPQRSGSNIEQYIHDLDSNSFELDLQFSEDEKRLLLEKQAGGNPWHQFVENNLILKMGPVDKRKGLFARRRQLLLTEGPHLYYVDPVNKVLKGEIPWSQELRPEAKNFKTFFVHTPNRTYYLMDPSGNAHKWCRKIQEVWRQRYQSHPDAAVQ
T4 sequence (P00533 25-1210): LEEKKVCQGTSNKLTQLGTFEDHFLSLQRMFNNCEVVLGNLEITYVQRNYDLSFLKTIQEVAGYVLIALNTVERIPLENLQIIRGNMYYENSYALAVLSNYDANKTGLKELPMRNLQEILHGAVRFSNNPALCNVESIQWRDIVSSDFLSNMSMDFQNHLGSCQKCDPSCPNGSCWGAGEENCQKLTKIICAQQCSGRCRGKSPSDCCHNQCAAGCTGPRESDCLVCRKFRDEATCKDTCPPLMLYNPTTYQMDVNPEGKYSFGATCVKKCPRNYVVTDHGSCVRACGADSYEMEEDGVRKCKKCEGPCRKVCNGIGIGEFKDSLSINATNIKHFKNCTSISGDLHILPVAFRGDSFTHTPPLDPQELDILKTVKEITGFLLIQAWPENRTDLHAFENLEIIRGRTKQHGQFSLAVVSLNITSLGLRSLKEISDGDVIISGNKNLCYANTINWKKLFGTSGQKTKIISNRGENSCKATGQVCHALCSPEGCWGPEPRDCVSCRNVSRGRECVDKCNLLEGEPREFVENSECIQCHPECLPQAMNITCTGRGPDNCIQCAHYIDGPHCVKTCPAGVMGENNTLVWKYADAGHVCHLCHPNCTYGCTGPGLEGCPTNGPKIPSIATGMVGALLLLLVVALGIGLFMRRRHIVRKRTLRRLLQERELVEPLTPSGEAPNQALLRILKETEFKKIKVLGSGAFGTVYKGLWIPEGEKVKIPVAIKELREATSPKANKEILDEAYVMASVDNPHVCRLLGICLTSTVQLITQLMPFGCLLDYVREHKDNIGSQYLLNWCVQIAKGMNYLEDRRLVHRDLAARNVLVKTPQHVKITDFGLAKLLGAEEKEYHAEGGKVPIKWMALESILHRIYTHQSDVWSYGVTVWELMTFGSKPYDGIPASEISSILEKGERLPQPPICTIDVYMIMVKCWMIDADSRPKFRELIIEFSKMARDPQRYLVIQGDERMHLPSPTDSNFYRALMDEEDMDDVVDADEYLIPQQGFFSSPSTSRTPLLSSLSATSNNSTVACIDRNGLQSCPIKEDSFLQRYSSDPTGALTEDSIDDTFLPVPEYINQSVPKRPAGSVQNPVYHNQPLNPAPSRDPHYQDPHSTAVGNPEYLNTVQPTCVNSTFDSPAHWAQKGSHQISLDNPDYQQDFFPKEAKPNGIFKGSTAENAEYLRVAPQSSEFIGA
T12 sequence (Q9Y243 whole entry): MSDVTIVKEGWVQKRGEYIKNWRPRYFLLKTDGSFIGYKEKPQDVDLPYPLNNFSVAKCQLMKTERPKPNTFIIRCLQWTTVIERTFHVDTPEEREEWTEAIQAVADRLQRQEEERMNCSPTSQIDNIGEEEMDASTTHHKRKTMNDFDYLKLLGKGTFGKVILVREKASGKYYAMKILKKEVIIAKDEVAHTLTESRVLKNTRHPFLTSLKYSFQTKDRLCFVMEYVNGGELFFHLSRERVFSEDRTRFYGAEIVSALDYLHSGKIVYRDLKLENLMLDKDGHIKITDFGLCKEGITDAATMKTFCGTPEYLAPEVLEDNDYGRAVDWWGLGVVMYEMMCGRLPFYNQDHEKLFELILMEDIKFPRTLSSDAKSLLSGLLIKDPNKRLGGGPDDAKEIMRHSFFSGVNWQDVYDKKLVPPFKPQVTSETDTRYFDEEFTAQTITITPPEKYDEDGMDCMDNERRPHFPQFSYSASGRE
T8 sequence (P36507 whole entry): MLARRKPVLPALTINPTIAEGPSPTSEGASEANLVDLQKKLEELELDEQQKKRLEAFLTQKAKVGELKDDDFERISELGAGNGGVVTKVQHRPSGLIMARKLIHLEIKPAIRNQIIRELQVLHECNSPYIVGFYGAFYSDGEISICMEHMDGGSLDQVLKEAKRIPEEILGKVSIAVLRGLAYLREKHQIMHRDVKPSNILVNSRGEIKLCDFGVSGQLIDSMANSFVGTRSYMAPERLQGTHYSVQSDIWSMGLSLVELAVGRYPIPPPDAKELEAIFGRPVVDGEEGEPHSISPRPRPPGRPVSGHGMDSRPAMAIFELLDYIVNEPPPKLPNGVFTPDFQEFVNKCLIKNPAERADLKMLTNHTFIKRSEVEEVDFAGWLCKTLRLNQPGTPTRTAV
T10 sequence (P31749 whole entry): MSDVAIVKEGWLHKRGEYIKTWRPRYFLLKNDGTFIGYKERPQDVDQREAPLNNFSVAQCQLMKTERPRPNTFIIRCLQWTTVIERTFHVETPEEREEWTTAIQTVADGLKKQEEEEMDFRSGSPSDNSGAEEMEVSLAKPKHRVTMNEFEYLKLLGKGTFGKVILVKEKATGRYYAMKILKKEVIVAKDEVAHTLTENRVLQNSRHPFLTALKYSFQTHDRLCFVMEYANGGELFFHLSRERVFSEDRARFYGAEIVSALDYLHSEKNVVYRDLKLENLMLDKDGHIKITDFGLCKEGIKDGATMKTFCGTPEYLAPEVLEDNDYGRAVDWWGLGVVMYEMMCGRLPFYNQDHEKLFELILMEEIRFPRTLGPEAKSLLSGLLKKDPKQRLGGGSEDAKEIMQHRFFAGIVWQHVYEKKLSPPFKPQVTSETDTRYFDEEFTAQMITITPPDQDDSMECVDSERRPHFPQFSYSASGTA
T11 sequence (P31751 whole entry): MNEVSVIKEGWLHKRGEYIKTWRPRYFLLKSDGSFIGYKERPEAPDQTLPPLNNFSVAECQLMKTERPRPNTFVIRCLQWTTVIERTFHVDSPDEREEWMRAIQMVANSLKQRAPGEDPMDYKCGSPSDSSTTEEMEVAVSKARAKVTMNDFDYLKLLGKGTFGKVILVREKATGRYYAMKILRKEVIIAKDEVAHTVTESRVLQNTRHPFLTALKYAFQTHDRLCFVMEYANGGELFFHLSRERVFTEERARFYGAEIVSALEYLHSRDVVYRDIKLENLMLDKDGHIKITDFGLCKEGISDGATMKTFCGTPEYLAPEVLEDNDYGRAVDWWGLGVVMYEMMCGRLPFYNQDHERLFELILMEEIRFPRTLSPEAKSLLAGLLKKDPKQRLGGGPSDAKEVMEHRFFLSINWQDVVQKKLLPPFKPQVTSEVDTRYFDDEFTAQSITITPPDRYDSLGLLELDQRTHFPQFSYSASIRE
T3 sequence (P04049 whole entry): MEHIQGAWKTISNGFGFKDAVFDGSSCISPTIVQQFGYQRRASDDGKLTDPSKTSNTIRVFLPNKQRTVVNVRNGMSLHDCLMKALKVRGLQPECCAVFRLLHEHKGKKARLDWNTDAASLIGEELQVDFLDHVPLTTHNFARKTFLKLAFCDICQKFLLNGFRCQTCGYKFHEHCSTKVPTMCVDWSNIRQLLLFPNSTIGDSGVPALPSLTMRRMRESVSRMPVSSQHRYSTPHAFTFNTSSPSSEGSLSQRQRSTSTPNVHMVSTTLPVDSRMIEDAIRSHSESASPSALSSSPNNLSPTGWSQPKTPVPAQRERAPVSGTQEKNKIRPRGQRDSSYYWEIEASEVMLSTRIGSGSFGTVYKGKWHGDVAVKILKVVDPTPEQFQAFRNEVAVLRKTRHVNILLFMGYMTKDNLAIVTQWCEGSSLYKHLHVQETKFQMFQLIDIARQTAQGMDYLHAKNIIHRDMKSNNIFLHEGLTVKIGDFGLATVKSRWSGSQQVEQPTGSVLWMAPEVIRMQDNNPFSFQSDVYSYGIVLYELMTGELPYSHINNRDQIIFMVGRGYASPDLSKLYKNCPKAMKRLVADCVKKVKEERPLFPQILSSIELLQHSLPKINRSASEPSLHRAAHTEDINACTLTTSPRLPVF

O=C(NCC1COc2ccccc2O1)c1ccco1 (stereo not shown) [Abd-2]
binding to^G12V-GppNHp (SPR) (HRAS^G12V-GppNHp): binds

COc1nc(-c2cccc3c2OCCO3)ccc1Nc1ccc(CN(C)C)cc1 [Abd-7]
% kinase activity in the presence of Abd-7 (BRAF): 104%
% kinase activity in the presence of Abd-7 (CRAF): 101%
% kinase activity in the presence of Abd-7 (EGFR): 93%
% kinase activity in the presence of Abd-7 (MAPK1): 126%
% kinase activity in the presence of Abd-7 (MAPK2): 111%
% kinase activity in the presence of Abd-7 (MEK1): 105%
% kinase activity in the presence of Abd-7 (MEK2): 101%
% kinase activity in the presence of Abd-7 (PDK1): 107%
% kinase activity in the presence of Abd-7 (PKBα): 91%
% kinase activity in the presence of Abd-7 (PKBβ): 93%
% kinase activity in the presence of Abd-7 (PKBγ): 103%
% kinase activity in the presence of Abd-7 (mTOR): 89%

Source: publication PMC6085350, “Small molecule inhibitors of RAS-effector protein interactions derived using an intracellular antibody fragment” (Nature Communications, 2018)
